In US10040759B2, “Substituted azetidinyl compounds as GlyT1 inhibitors” (DART NEUROSCIENCE (CAYMAN) LTD., priority 2014, dated 2018):

Target: T1, GlyT1 (Homo sapiens, UniProt P48067)
T1 construct: expressed in transfected cells
T1 sequence (P48067 1-706): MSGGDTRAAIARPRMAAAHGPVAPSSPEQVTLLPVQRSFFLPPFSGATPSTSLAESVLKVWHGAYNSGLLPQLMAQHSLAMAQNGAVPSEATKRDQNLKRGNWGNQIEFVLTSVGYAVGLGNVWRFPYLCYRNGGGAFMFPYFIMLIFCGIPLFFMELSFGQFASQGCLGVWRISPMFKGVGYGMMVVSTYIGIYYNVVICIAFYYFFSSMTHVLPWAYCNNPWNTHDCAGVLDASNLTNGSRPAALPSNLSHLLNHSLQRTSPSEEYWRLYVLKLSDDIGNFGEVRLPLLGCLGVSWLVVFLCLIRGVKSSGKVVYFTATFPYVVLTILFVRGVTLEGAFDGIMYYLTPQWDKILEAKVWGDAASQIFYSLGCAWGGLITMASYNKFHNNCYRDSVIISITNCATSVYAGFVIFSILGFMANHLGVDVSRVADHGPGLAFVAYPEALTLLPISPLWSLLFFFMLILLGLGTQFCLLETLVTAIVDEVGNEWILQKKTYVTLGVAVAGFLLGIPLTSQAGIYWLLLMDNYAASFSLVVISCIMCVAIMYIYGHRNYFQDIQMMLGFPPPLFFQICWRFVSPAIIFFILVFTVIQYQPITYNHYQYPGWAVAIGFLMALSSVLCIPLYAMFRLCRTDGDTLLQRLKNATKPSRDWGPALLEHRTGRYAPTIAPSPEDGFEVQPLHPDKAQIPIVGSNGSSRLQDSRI
Test: Glycine Transporter 1 (GlyT1) uptake assay, scintillation proximity assay of [14C]-glycine uptake
Format: cell-based
Conditions: [14C]-glycine uptake; read-out: GlyT1 (pIC50) (converted)
Procedure, shortened: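 IC50 values were derived by four-parameter logistic fitting of counts. The 2× compound solutions were made by 1:100 dilution into HBSS of DMSO serial dilutions.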

SMILES | IC50 [nM]
COc1c(C#N)ccc(O[C@@H](C)C(F)(F)F)c1C(=O)N1CC(c2ccc(C#N)c(F)c2)C1 [Example 116, 3-{[3-(4-Cyano-3-fluorophenyl)azetidin-1-yl]carbonyl}-2-methoxy-4-{[(2S)-1,1,1-trifluoropropan-2-yl]oxy}benzonitrile] | < 100
COc1c(C#N)ccc(C2(F)CCOCC2)c1C(=O)N1CC(c2ncc(C(F)(F)F)cc2Cl)C1 [Example 117, 3-({3-[3-Chloro-5-(trifluoromethyl)pyridin-2-yl]azetidin-1-yl}carbonyl)-4-(4-fluorooxan-4-yl)-2-methoxybenzonitrile] | < 100
COc1c(C#N)ccc(O[C@@H](C)C(F)(F)F)c1C(=O)N1CC(c2ncc(F)cc2F)C1 [Example 121, 3-{[3-(3,5-Difluoropyridin-2-yl)azetidin-1-yl]carbonyl}-2-methoxy-4-{[(2S)-1,1,1-trifluoropropan-2-yl]oxy}benzonitrile] | < 100
COc1c(C#N)ccc(O[C@@H](C)C(F)(F)F)c1C(=O)N1CC(c2ccc(C#N)c(Cl)c2)C1 [Example 122, 3-{[3-(3-Chloro-4-cyanophenyl)azetidin-1-yl]carbonyl}-2-methoxy-4-{[(2S)-1,1,1-trifluoropropan-2-yl]oxy}benzonitrile] | < 100
COc1c(C#N)ccc(O[C@@H](C)C(F)(F)F)c1C(=O)N1CC(c2ccccc2C#N)C1 [Example 123, 3-{[3-(2-Cyanophenyl)azetidin-1-yl]carbonyl}-2-methoxy-4-{[(2S)-1,1,1-trifluoropropan-2-yl]oxy}benzonitrile] | < 100
COc1c(C#N)ccc(OCC(F)(F)F)c1C(=O)N1CC(c2ccc(C(F)(F)F)cn2)C1 [Example 125, 2-Methoxy-4-(2,2,2-trifluoroethoxy)-3-({3-[5-(trifluoromethyl)pyridin-2-yl]azetidin-1-yl}carbonyl)benzonitrile] | < 100
COc1c(C#N)ccc(O[C@@H](C)C(F)(F)F)c1C(=O)N1CC(c2ccc(Cl)cc2C#N)C1 [Example 126, 3-{[3-(4-Chloro-2-cyanophenyl)azetidin-1-yl]carbonyl}-2-methoxy-4-{[(2S)-1,1,1-trifluoropropan-2-yl]oxy}benzonitrile] | < 100
COc1c(C#N)ccc(O[C@@H](C)C(F)(F)F)c1C(=O)N1CC(c2ccc(F)cc2C#N)C1 [Example 127, 3-{[3-(2-Cyano-4-fluorophenyl)azetidin-1-yl]carbonyl}-2-methoxy-4-{[(2S)-1,1,1-trifluoropropan-2-yl]oxy}benzonitrile] | < 100
COc1cc(C#N)ccc1C1CN(C(=O)c2c(O[C@@H](C)C(F)(F)F)ccc(C#N)c2OC)C1 [Example 128, 3-{[3-(4-Cyano-2-methoxyphenyl)azetidin-1-yl]carbonyl}-2-methoxy-4-{[(2S)-1,1,1-trifluoropropan-2-yl]oxy}benzonitrile] | < 100
COc1cc(C(F)(F)F)ccc1C1CN(C(=O)c2c(O[C@@H](C)C(F)(F)F)ccc(C#N)c2OC)C1 [Example 129, 2-Methoxy-3-({3-[2-methoxy-4-(trifluoromethyl)phenyl]azetidin-1-yl}carbonyl)-4-{[(2S)-1,1,1-trifluoropropan-2-yl]oxy}benzonitrile] | 100 to 1000
COc1c(C#N)ccc(O[C@@H](C)C(F)(F)F)c1C(=O)N1CC(c2ccc3ncoc3c2)C1 [Example 130, 3-{[3-(1,3-Benzoxazol-6-yl)azetidin-1-yl]carbonyl}-2-methoxy-4-{[(2S)-1,1,1-trifluoropropan-2-yl]oxy}benzonitrile] | < 100
C[C@H](Oc1ccc(C#N)c(Cl)c1C(=O)N1CC(c2ccc(C#N)cc2Cl)C1)C(F)(F)F [Example 131, 2-Chloro-3-{[3-(2-chloro-4-cyanophenyl)azetidin-1-yl]carbonyl}-4-{[(2S)-1,1,1-trifluoropropan-2-yl]oxy}benzonitrile] | < 100
COc1c(C#N)ccc(C2(F)CCOCC2)c1C(=O)N1CC(c2ccc(C#N)cc2Cl)C1 [Example 132, 3-{[3-(2-Chloro-4-cyanophenyl)azetidin-1-yl]carbonyl}-4-(4-fluorooxan-4-yl)-2-methoxybenzonitrile] | < 100
COc1c(C#N)ccc(C2(F)CCC2)c1C(=O)N1CC(c2ccc(C#N)cc2Cl)C1 [Example 134, 3-{[3-(2-Chloro-4-cyanophenyl)azetidin-1-yl]carbonyl}-4-(1-fluorocyclobutyl)-2-methoxybenzonitrile] | < 100
COc1c(C#N)ccc(O[C@H](C)C(F)(F)F)c1C(=O)N1CC(c2ccc(C(F)(F)F)cn2)C1 [Example 135, 2-Methoxy-3-{3-[5-(trifluoromethyl)pyridin-2-yl]azetidine-1-carbonyl}-4-{[(2R)-1,1,1-trifluoropropan-2-yl]oxy}benzonitrile] | 100 to 1000
COc1c(C#N)ccc(O[C@H](C)C(F)(F)F)c1C(=O)N1CC(c2ccc(C(F)F)cn2)C1 [Example 137, 3-{3-[5-(Difluoromethyl)pyridin-2-yl]azetidine-1-carbonyl}-2-methoxy-4-{[(2R)-1,1,1-trifluoropropan-2-yl]oxy}benzonitrile] | < 100
COc1c(S(C)(=O)=O)ccc(O[C@@H](C)C(F)(F)F)c1C(=O)N1CC(c2ccc(C(F)(F)F)cc2F)C1 [Example 139, 3-[2-Fluoro-4-(trifluoromethyl)phenyl]-1-(3-methanesulfonyl-2-methoxy-6-{[(2S)-1,1,1-trifluoropropan-2-yl]oxy}benzoyl)azetidine] | < 100
COc1c(S(C)(=O)=O)ccc(O[C@@H](C)C(F)(F)F)c1C(=O)N1CC(c2ccc(C(F)F)c(F)c2)C1 [Example 142, 3-[4-(Difluoromethyl)-3-fluorophenyl]-1-(3-methanesulfonyl-2-methoxy-6-{[(2S)-1,1,1-trifluoropropan-2-yl]oxy}benzoyl)azetidine] | 1000 to 10000

The remaining lines, values ahead:

IC50 [nM] | SMILES
100 to 1000 | COc1c(C#N)ccc(O[C@@H](C)C(F)(F)F)c1C(=O)N1CC(c2ccc(C(F)F)cn2)C1 [Example 115, 3-({3-[5-(Difluoromethyl)pyridin-2-yl]azetidin-1-yl}carbonyl)-2-methoxy-4-{[(2S)-1,1,1-trifluoropropan-2-yl]oxy}benzonitrile]
< 100 | COc1c(C#N)ccc(O[C@@H](C)C(F)(F)F)c1C(=O)N1CC(c2ccc(C#N)cc2Cl)C1 [Example 118, 3-{[3-(2-Chloro-4-cyanophenyl)azetidin-1-yl]carbonyl}-2-methoxy-4-{[(2S)-1,1,1-trifluoropropan-2-yl]oxy}benzonitrile]
< 100 | COc1c(C#N)ccc(OCC(F)(F)F)c1C(=O)N1CC(c2ncc(C(F)(F)F)cc2Cl)C1 [Example 119, 3-({3-[3-Chloro-5-(trifluoromethyl)pyridin-2-yl]azetidin-1-yl}carbonyl)-2-methoxy-4-(2,2,2-trifluoroethoxy)benzonitrile]
< 100 | C[C@H](Oc1ccc(C#N)c(Cl)c1C(=O)N1CC(c2ccc(C(F)(F)F)cn2)C1)C(F)(F)F [Example 120, 2-Chloro-3-({3-[5-(trifluoromethyl)pyridin-2-yl]azetidin-1-yl}carbonyl)-4-{[(2S)-1,1,1-trifluoropropan-2-yl]oxy}benzonitrile]
< 100 | COc1c(C#N)ccc(O[C@@H](C)C(F)(F)F)c1C(=O)N1CC(c2ccc(C#N)c(F)c2Cl)C1 [Example 124, 3-Chloro-4-{1-[(3-cyano-2-methoxy-6-{[(2S)-1,1,1-trifluoropropan-2-yl]oxy}phenyl)carbonyl]azetidin-3-yl}-2-fluorobenzonitrile]
< 100 | COc1c(C#N)ccc(C2(F)CCC(F)(F)CC2)c1C(=O)N1CC(c2ccc(C#N)cc2Cl)C1 [Example 133, 3-{[3-(2-Chloro-4-cyanophenyl)azetidin-1-yl]carbonyl}-2-methoxy-4-(1,4,4-trifluorocyclohexyl)benzonitrile]
100 to 1000 | COc1c(C#N)ccc(O[C@H](C)C(F)(F)F)c1C(=O)N1CC(c2ncc(C(F)(F)F)cc2Cl)C1 [Example 136, 3-{3-[3-Chloro-5-(trifluoromethyl)pyridin-2-yl]azetidine-1-carbonyl}-2-methoxy-4-{[(2R)-1,1,1-trifluoropropan-2-yl]oxy}benzonitrile]
100 to 1000 | COc1c(S(C)(=O)=O)ccc(O[C@H](C)C(F)(F)F)c1C(=O)N1CC(c2ccc(C(F)(F)F)cc2F)C1 [Example 138, 3-[2-Fluoro-4-(trifluoromethyl)phenyl]-1-(3-methanesulfonyl-2-methoxy-6-{[(2R)-1,1,1-trifluoropropan-2-yl]oxy}benzoyl)azetidine]
100 to 1000 | COc1c(S(C)(=O)=O)ccc(O[C@H](C)C(F)(F)F)c1C(=O)N1CC(c2ccc(C(F)(F)F)c(F)c2)C1 [Example 140, 3-[3-Fluoro-4-(trifluoromethyl)phenyl]-1-(3-methanesulfonyl-2-methoxy-6-{[(2R)-1,1,1-trifluoropropan-2-yl]oxy}benzoyl)azetidine]
100 to 1000 | COc1c(S(C)(=O)=O)ccc(O[C@@H](C)C(F)(F)F)c1C(=O)N1CC(c2ccc(C(F)(F)F)c(F)c2)C1 [Example 141, 3-[3-Fluoro-4-(trifluoromethyl)phenyl]-1-(3-methanesulfonyl-2-methoxy-6-{[(2S)-1,1,1-trifluoropropan-2-yl]oxy}benzoyl)azetidine]
